The subject of data set [1] is Duck hepatitis B virus. Kind of data set: Antiviral activity against DHBV infected in duck hepatocytes assessed as inhibition of viral DNA replication at 10 ug/ml. Type of data set: functional, Hepatocyte. Also on record: scale not given: the % may be the effect or the level left.
Data set [2] relates to Hepatitis B virus. The experiment in a line: Antiviral activity against HBV assessed as inhibition of viral DNA replication at 10 ug/mL. The data set is classed as functional. Also on record: scale not given: the % may be the effect or the level left.
Data set [3] is described as follows: Cytotoxicity against HuH7 cells. Type of data set: cell-based, Huh-7. Conditions: human.
Data set [4] has as its system Duck hepatitis B virus. Kind of data set: Antiviral activity against DHBV infected in duck hepatocytes assessed as inhibition of viral DNA replication relative to control. Also on record: concentration or dose not given beside the values. The data set is classed as functional, Hepatocyte.
The subject of data set [5] is Hepatitis B virus. Kind of data set: Antiviral activity against HBV assessed as inhibition of viral DNA replication relative to control. Type of data set: functional. Further details: concentration or dose not given beside the values.
Data set [6] deals with Hepatitis B virus. Kind of data set: Antiviral activity against drug resistant HBV infected in M204I cells assessed as inhibition of viral DNA replication at 1 to 5 ug/mL. The data set is classed as functional. Further details: scale not given: the % may be the effect or the level left.
The test system of data set [7] is Hepatitis B virus. The experiment in a line: Antiviral activity against drug resistant HBV infected in M204I cells assessed as inhibition of viral DNA replication. The data set is classed as functional, organism-based.
Data set [8] has as its system Duck hepatitis B virus. The experiment in a line: Antiviral activity against DHBV infected in duck hepatocytes assessed as inhibition of viral DNA replication. The data set is classed as functional, organism-based. Conditions: Hepatocyte.
Data set [9] has as its system Hepatitis B virus. Kind of data set: Antiviral activity against HBV assessed as inhibition of viral DNA replication at 5 ug/mL. The data set is classed as functional. Further details: scale not given: the % may be the effect or the level left.
The subject of data set [10] is Hepatitis B virus. Kind of data set: Antiviral activity against HBV assessed as inhibition of viral DNA replication. Type of data set: functional, organism-based.
Data set [11] deals with Duck hepatitis B virus. Kind of data set: Antiviral activity against DHBV infected in duck hepatocytes assessed as inhibition of viral DNA replication at 1 ug/ml. Type of data set: functional, Hepatocyte. Further details: scale not given: the % may be the effect or the level left.
Data set [12] relates to Hepatitis B virus. Kind of data set: Antiviral activity against drug resistant HBV infected in M204I cells assessed as inhibition of viral DNA replication at 5 ug/mL. Also on record: scale not given: the % may be the effect or the level left. The data set is classed as functional.
In data set [13] the test system is Hepatitis B virus. The experiment in a line: Antiviral activity against drug resistant HBV infected in M204I cells assessed as inhibition of viral DNA replication at 10 ug/mL. Also on record: scale not given: the % may be the effect or the level left. The data set is classed as functional.
Data set [14] has as its system Hepatitis B virus. The experiment in a line: Antiviral activity against HBV assessed as inhibition of viral DNA replication at 0.5 to 1 ug/mL. Type of data set: functional. Further details: scale not given: the % may be the effect or the level left.
For data set [15], the system named is Duck hepatitis B virus. Kind of data set: Antiviral activity against DHBV infected in duck hepatocytes assessed as inhibition of viral DNA replication at 0.01 to 0.05 ug/mL. The data set is classed as functional, Hepatocyte. Also on record: scale not given: the % may be the effect or the level left.
Data set [16] deals with Duck hepatitis B virus. The experiment in a line: Antiviral activity against DHBV infected in duck hepatocytes assessed as inhibition of viral DNA replication at 0.05 ug/ml. The data set is classed as functional, Hepatocyte. Further details: scale not given: the % may be the effect or the level left.
Data set [17] deals with Hepatitis B virus. The experiment in a line: Antiviral activity against HBV assessed as inhibition of viral DNA replication at 0.5 ug/mL. The data set is classed as functional. Further details: scale not given: the % may be the effect or the level left.
Data set [18] has as its system Hepatitis B virus. Kind of data set: Antiviral activity against drug resistant HBV infected in M204I cells assessed as inhibition of viral DNA replication at 1 ug/mL. The data set is classed as functional. Further details: scale not given: the % may be the effect or the level left.
Data set [19] deals with Hepatitis B virus. Kind of data set: Antiviral activity against HBV assessed as inhibition of viral DNA replication at 1 ug/mL. Type of data set: functional. Further details: scale not given: the % may be the effect or the level left.

Take `Nc1ncnc2c1ncn2[C@H]1CC(O)[C@@H](CO)O1` (single isomer, unassigned) [DEOXYADENOSINE]: the values for the Activity in the data set on Duck hepatitis B virus [1] and in the data set with Hepatitis B virus [2] were 40% and 36%, respectively.

`O=c1ccn([C@H]2C[C@@H](O)[C@@H](CO)O2)c(=O)[nH]1` returned a CC50 in [3] of more than 877 µM. Further, the Activity in the data set on Duck hepatitis B virus [4] and in the data set with Hepatitis B virus [5] was 0% in each case.

`Nc1nc(NC2CC2)c2ncn([C@H]3C=C[C@@H](CO)C3)c2n1` [ABACAVIR]: the Activity with Hepatitis B virus [6] worked out at 80%. Further, the half-maximal effective concentration (EC50) in the data set on Hepatitis B virus [7] was less than 2.6 µM.

For `O=c1ccn([C@@H]2O[C@H](CO)[C@@H](F)[C@@H]2O)c(=O)[nH]1`, the CC50 in data set [3] was more than 813 µM. Besides, the Activity with Duck hepatitis B virus [1] is 25%; in the data set with Hepatitis B virus [2], 15%.

With `O=c1[nH]c(=O)n([C@H]2C[C@H](O)[C@@H](CO)O2)cc1I` [IDOXURIDINE], the 50% cytotoxic concentration (CC50) in [3] was more than 282 µM. Further, the Activity in the data set on Duck hepatitis B virus [4] and with Hepatitis B virus [5] was 0% in each case.

In data set [3], `Cc1cn([C@@H]2O[C@H](CO)[C@@H](F)[C@@H]2O)c(=O)[nH]c1=O` gave a CC50 of more than 769 µM. For the same molecule, the Activity in the data set on Duck hepatitis B virus [4] and with Hepatitis B virus [5] was 0% throughout.

`O=c1[nH]c(=O)n([C@H]2C[C@@H](O)[C@@H](CO)O2)cc1Cl`: in data set [3], the CC50 was more than 763 µM. Besides, the Activity in the data set on Duck hepatitis B virus [1] turned out to be 25%; in the data set with Hepatitis B virus [2] it was 15%.

In the case of `Cc1cn([C@@H]2O[C@H](CO)[C@H](O)[C@H]2F)c(=O)[nH]c1=O`, the figures for the EC50 with Duck hepatitis B virus [8], in the data set with Hepatitis B virus [7] and in the data set with Hepatitis B virus [10] were 3.84 µM, 19.2 µM and 19.2 µM, respectively. Also, the Activity is listed as 50% in the data set with Hepatitis B virus [9]; 50% with Duck hepatitis B virus [11]; 72% in the data set with Duck hepatitis B virus [1]; 60% with Hepatitis B virus [2]; 50% in the data set with Hepatitis B virus [12]. Also, the CC50 in data set [3] was more than 769 µM.

Molecule `O=c1[nH]c(=O)n([C@H]2C[C@@H](O)[C@@H](CO)O2)cc1Br` yielded a CC50 in data set [3] of more than 651 µM. In addition, the Activity in the data set with Duck hepatitis B virus [4] and in the data set with Hepatitis B virus [5] was 0% each time.

Take `Nc1ccn([C@@H]2CS[C@H](CO)O2)c(=O)n1` [LAMIVUDINE]: the EC50 with Duck hepatitis B virus [8] is less than 0.044 µM; in the data set with Hepatitis B virus [7], more than 44 µM; in the data set on Hepatitis B virus [10], 0.22 µM. The molecule further registered a CC50 in data set [3] of more than 873 µM. In addition, the Activity with Hepatitis B virus [13] is 40%; in the data set on Hepatitis B virus [14], 85%; in the data set on Duck hepatitis B virus [15], 95%.

As to `CCc1cn([C@@H]2O[C@H](CO)C=C2F)c(=O)[nH]c1=O`, the EC50 with Duck hepatitis B virus [8], with Hepatitis B virus [7] and in the data set on Hepatitis B virus [10] was 39.1 µM throughout. For the same molecule, in data set [3], the CC50 is more than 781 µM. Also, the Activity with Hepatitis B virus [13], with Duck hepatitis B virus [1] and in the data set on Hepatitis B virus [2] was 50% throughout.

For the molecule `O=c1ccn([C@@H]2O[C@H](CO)[C@H](O)[C@H]2F)c(=O)[nH]1`, the EC50 in the data set on Duck hepatitis B virus [8] stood at 40.6 µM. Moreover, in [3], the cytotoxic concentration (CC50) is more than 813 µM. The Activity with Duck hepatitis B virus [1] is reported as 50%; with Hepatitis B virus [2], 40%.

In data set [3], `Cc1cn([C@H]2C[C@@H](O)[C@@H](CO)O2)c(=O)[nH]c1=S` registered a CC50 of more than 775 µM. The Activity in the data set with Duck hepatitis B virus [4] and with Hepatitis B virus [5] was 0% in each case.

For the molecule `O=c1[nH]c(=O)n([C@H]2CC(O)[C@@H](CO)O2)cc1C(F)(F)F` (single isomer, unassigned) [TRIFLURIDINE], the EC50 was 3.37 µM with Duck hepatitis B virus [8], 33.7 µM in the data set with Hepatitis B virus [7] and 33.7 µM with Hepatitis B virus [10]. The CC50 in data set [3] was more than 675 µM. In addition, the Activity in the data set with Hepatitis B virus [13] came to 50%; in the data set on Duck hepatitis B virus [11], 50%; with Duck hepatitis B virus [1] it was 70%; in the data set on Hepatitis B virus [2] it was 55%.

As to `O=c1[nH]c(=O)n([C@H]2CC(O)[C@@H](CO)O2)cc1F` (single isomer, unassigned) [FLOXURIDINE], the CC50 in data set [3] was more than 813 µM. The Activity in the data set on Duck hepatitis B virus [4] and with Hepatitis B virus [5] was 0% throughout.

For `CCc1cn([C@H]2C[C@@H](O)[C@@H](CO)O2)c(=O)[nH]c1=O`, the CC50 in data set [3] was more than 781 µM. Besides, the Activity in the data set on Duck hepatitis B virus [4] and in the data set with Hepatitis B virus [5] was 0% each time.

With `Cc1cn([C@@H]2O[C@H](CO)C=C2F)c(=O)[nH]c1=O`, the Activity in the data set on Duck hepatitis B virus [16] stood at 50%; in the data set on Hepatitis B virus [17], 50%; with Hepatitis B virus [18], 50%; with Duck hepatitis B virus [11], 67%; in the data set on Hepatitis B virus [19], 58%; with Duck hepatitis B virus [1], 94%. Further, the Activity with Hepatitis B virus [2] is listed as 85%. The EC50 in the data set on Duck hepatitis B virus [8] was determined as 0.2 µM; with Hepatitis B virus [7], 4.1 µM; in the data set with Hepatitis B virus [10], 2 µM. This molecule gave a CC50 in data set [3] of more than 413 µM.

For `Cc1cn([C@H]2C[C@@H](O)[C@@H](CO)O2)c(=O)[nH]c1=O`, the EC50 came out at 4.13 µM in the data set on Duck hepatitis B virus [8] and 41.3 µM in the data set with Hepatitis B virus [10]. Moreover, the CC50 in data set [3] is more than 826 µM. For the same molecule, the Activity in the data set with Hepatitis B virus [13] was found to be 45%; with Duck hepatitis B virus [11], 50%; in the data set on Duck hepatitis B virus [1], 65%; with Hepatitis B virus [2], 50%.

Source of the values: ChEMBL document CHEMBL1255225, “Antiviral activity of various 1-(2'-deoxy-β-D-lyxofuranosyl), 1-(2'-fluoro-β-D-xylofuranosyl), 1-(3'-fluoro-β-D-arabinofuranosyl), and 2'-fluoro-2',3'-didehydro-2',3'-dideoxyribose pyrimidine nucleoside analogues against duck hepatitis B virus (DHBV) and human hepatitis B virus (HBV) replication” (J Med Chem, 2010).
